The text below walks through data of patent US20200360305A1 (INSERM (Institut National de la Ssnté et de la Researche …, priority 2017, published 2020).

Series [1] concerns polyamine and acetyl coenzyme A metabolism. The experiment in a line: Metabolomics analysis of tissues (polyamines, acetyl CoA, TETA metabolites). The class given is in vivo, mouse. The settings on record: for Acetyl coenzyme A (CoA) levels: liver (FIG. 7C); for Acetyl coenzyme A (CoA) levels / Ratio of N1-acetylspermidine over spermidine (polyamine catabolism): mice upon HFD regimen; for Ratio of N1-acetylspermidine over spermidine (polyamine catabolism): liver, heart or muscle (FIG. 7B).
Description: Metabolomics analysis. All standard and reagents used were from Sigma Aldrich except Ammonium carbonate (VWR). For sample preparation, about 30 mg of tissues for each condition were first weighted and solubilized into 1.5 mL polypropylene microcentrifuge tubes with ceramic beads with 1 mL of cold lysate buffer (MeOH/Water/Chloroform, 9/1/1, −20° C.). They were then homogenized three times for 20 s at 5500 rpm using a Precellys 24 tissue homogenator (Bertin Technologies, Montigny-le-Bretonneux, France), followed by a centrifugation (10 min at 15000 g, 4° C.). […] The LC-MS dried extracts were solubilized with 450 μL of MilliQ water and aliquoted in 3 microcentrifuge tubes (100 μL) for each LC method and one microcentrifuge tube for safety. Aliquots for analysis were transferred in LC vials and injected into LC/MS or kept at −80° C. until injection. For sample preparation of polyamines, about 30 mg of tissues for each condition were first weighted and solubilized into 1.5 mL polypropylene microcentrifuge tubes, with 1 mL of cold lysate buffer with 1% sulfosalicylic acid (MeOH /water 1% SSA, 9/1, −20° C.). They were then homogenized three times for 20 s at 5500 rpm using Precellys 24 tissue homogenator (Bertin Technologies, Montigny-le-Bretonneux, France), followed by a centrifugation (10 min at 15000 g, 4° C.). 600 μL of the upper phase of the supernatant was collected and evaporated in microcentrifuge tubes at 40° C. in a pneumatically assisted concentrator (Techne DB3, Staffordshire, UK). The LC-MS dried extracts were solubilized with 300 μL of MilliQ water, centrifugated (10 min at 15000 g, 4° C.), and 50 μL were transferred in polypropylene vial injection for LC method and the rest was transferred in microcentrifuge tube for safety. Aliquots transferred in polypropylene vials were injected into LC/MS or kept at −80° C. until injection. Targeted analysis of CoAs and nucleoside phosphates by ion pairing ultrahigh performance liquid chromatography (UHPLC) coupled to a Triple Quadrupole (QQQ) mass spectrometer was performed on a RRLC 1260 system (Agilent Technologies, Waldbronn, Germany) coupled to a Triple Quadrupole 6410 (Agilent Technologies) equipped with an electrospray source operating in positive mode. The gas temperature was set to 350° C. with a gas flow of 12 L/min. The capillary voltage was set to 3.5 kV.
10 μL of sample were injected on a Column XDB-C18 (100 mm×2.1 mm particle size 1.8 μm) from Agilent technologies, protected by a guard column XDB-C18 (5 mm×2.1 mm particle size 1.8 μm) and heated at 40° C. by a pelletier oven.
The gradient mobile phase consisted of water with 2 mM of DBAA (A) and acetonitrile (B). The flow rate was set to 0.2 mL/min, and gradient as follow: initial condition was 90% phase A and 10% phase B, maintained during 4 min. Molecules were then eluted using a gradient from 10% to 95% phase B over 3 min.

For series [2], the system named is invertebrate model organisms. The settings on record: spermidine supplementation; cited from earlier work.
The conditions of series [3]: mice, spermidine supplementation; cited from earlier work.
For series [4] the following is noted: mice on a high fat diet; cited from earlier work.
The conditions of series [5]: cited from earlier work.
The conditions of series [6]: old mice; cited from earlier work.
For series [7] the following is noted: ApoE-/- mice fed a high-fat diet for 20 weeks; cited from earlier work.
The conditions of series [8]: Dahl salt-sensitive rats, high-salt diet, oral supplementation; cited from earlier work.
The conditions of series [9]: in vivo; cited from earlier work.
For a further series, the system named is Drosophila. The settings on record: cited from earlier work.
For series [10] the following is noted: mice; cited from earlier work.
For series [11] the following is noted: mice, model of normal tension glaucoma; cited from earlier work.
For series [12] the following is noted: old mice; cited from earlier work. This is another data set of the same source.
Series [13] has as its system autophagy (LC3-I to LC3-II conversion, p62/SQSTM1 degradation). The settings on record: oral administration (not shown). The procedure: Tissue processing for Immunoblotting. […] Tissue extracts were then centrifuged at 12,000 g at 4° C. and supernatants were collected. Protein concentration in the supernatants was evaluated by the bicinchoninic acid technique (#23225, BCA protein assay kit). Protein extracts were run on 4-12% Bis-Tris acrylamide gels (# NP0322, Thermo Fisher Scientific) and electrotransferred to […] polyvinylidene fluoride (PVDF) membranes (#1620177,Bio-Rad). […] Equal protein loading was monitored by probing membranes with a glyceraldeyde-3-phosphate dehydrogenase (GAPDH)-specific antibody (#2118, Cell Signaling Technology). Membranes were developed with suitable horseradish peroxidase conjugates followed by chemiluminescence-based detection with the Amersham ECL Prime (# RPN2232, GE Healthcare and the ImageQuant LAS 4000 software-assisted imager (GE Healthcare, Piscataway, N.J., USA). Quantification was performed by densitometry by means of Image J software. Autophagy was quantified through evaluation of LC3-II/GAPDH ratio and SQSTM1/GAPDH ratio in accordance to guidelines.

The text on series [14]: Mouse experiments Six-to 7-week-old male WT C57Bl/6 were obtained from Envigo, France. Mice were maintained in specific pathogen-free conditions in a temperature-controlled environment with 12-hr light/12-hr dark cycles and received food and water ad libitum. Animal experiments were in compliance with the EU Directive 63/2010 and protocols 2012_069 and APAFIS #5272-2016042112271931v2 were approved by Ethical Committee of the Gustave Roussy Campus and Cordeliers Research Centre respectively. For weight gain experiments, mice were fed high fat diet (#260HF, Safe, France) or were given 30% sucrose solution in tap water.

For series [15] the following is noted: chronic TETA. The method, then: Glucose and Insulin Tolerance Test. For glucose tolerance test (GTT) mice were fasted O/N for 16 hours. 2.5 g/kg/BW glucose solution in PBS was injected intraperitoneally and blood glucose levels was measured by means of glucometer in tail vein blood. Tail snipping was used to obtain blood. Before snips, the tail end was dipped into Bupivicaine (0.25%) for local anesthesia. For the insulin tolerance test (ITT), mice were starved for 4 hours and a solution of 0.75 U/kg/BW insulin was injected intraperitoneally. Blood glucose is measured at 30, 60, and 120 minutes after glucose or insulin injection.

For series [16] the following is noted: HFD mice, TETA 8 weeks. The procedure: Plasma cytokine measurements. Plasma was harvested from blood collection tubes by centrifugation at 15,000 rpm for 30 min, and stored at −80° C. Cytokines and levels were measured using a mouse serum adipokine immunoassay kit according to the protocol provided by the manufacturer (Cat. # MMHMAG-44K, EMD Millipore, Temecula, Calif., USA).

The conditions of series [17]: patients, long-term (decades) administration; cited from earlier work.
In series [18] the test system is N-e-acetylated Lysine residues of proteins. Description: Quantitative analysis of protein acetylation in tissues (immunofluorescence). The settings on record: mice.
[19] abbreviates: mice with excessive weight gain, chronic TETA (not shown).
Setting [20] is: mice with excessive weight gain (HFD, sucrose, ob/ob).

Entries after “also recorded” stand apart in the source; their conditions may differ. Like-named read-outs stand apart in the source and are kept apart here.

On to `NCCCCNCCCN` [Spermidine, spermidine], for which the N1-acetylspermidine levels result in [1] (liver (FIG. 7A) and all mouse organs (data not shown)) is reported as “increase in N1-acetylspermidine levels”. In addition, in series [1], the “Acetyl coenzyme A (CoA) levels” value is reported as “acetyl coenzyme A (AcCoA) depletion” and the “Ratio of N1-acetylspermidine over spermidine (polyamine catabolism)” value is given as “promote polyamine catabolism”. For the same molecule, in series [1] (listed as spermidine), the “Acetyl coenzyme A (CoA) levels” value is on record as “reduced acetyl coenzyme A (CoA) levels” and the “Ratio of N1-acetylspermidine over spermidine (polyamine catabolism)” value is “increased the ratio”. Moreover, the “Spermidine level in organs” value in series [1] (mice, after spermidine administration) is “increase of this polyamine in most organs except plasma”. Besides, the Longevity result in series [2] is on record as “extends the longevity”. Moreover, the Longevity result in series [3] is recorded as “extends the longevity”. Also, in series [4], the Glucose tolerance result was “improved”, the Insulin sensitivity result is “improved” and the Weight gain result was “reduced weigh gain”. The Cardiac aging entry in series [5] (aging mice, chronic administration) is “protects from cardiac aging”. Further, the “Diastolic function, left ventricular elasticity, and mitochondrial function” value in [5] (old mice) is “improves”. In addition, in series [6], the Age-induced arterial stiffness result is on record as “reversed age-induced arterial stiffness”. The “Formation of atherosclerotic plaques” value in [7] is reported as “alleviated the formation of atherosclerotic plaques”. In series [8], the Blood pressure entry was “reduced high blood pressure” and the “Transition to heart failure” value is given as “delayed the transition to heart failure”. Moreover, in series [9], the Anticancer immune response result is recorded as “enhance the anticancer immune response”. In the series with Drosophila, the Age-induced memory impairment entry was “protects from age-induced memory impairment” and the “Loss of locomotor activity” value is recorded as “protects from”. Further, the “Signs of pathology in experimental autoimmune encephalomyelitis” value in series [10] is “attenuates signs of pathology”. The Retinal degeneration result in series [11] was “blunts retinal degeneration”. In series [12], the “Spatial learning and memory capabilities” value was “improves spatial learning and memory capabilities”.
With `NCCNCCNCCN` [TETA, N,N′-Bis(2-aminoethyl)ethane-1,2-diamine], the “Signs of autophagy in several mouse organs” value in series [13] was “induced signs of autophagy”. Moreover, in [14] (setting [19]), the “Accumulation of intestinal and perigonadal adipose tissue” value is “reduced accumulation of intestinal and perigonadal adipose tissue”; the “Fat accumulation in the liver” value was “reduced fat accumulation in the liver”. The Weight gain entry in series [14] (normal mice on a high-fat diet, TETA in drinking water) is listed as “reduced the accelerated weight gain”. Besides, the Weight gain entry in [14] (normal mice on a high-sucrose diet (30% sucrose in drinking water), TETA per os 100 mg/kg) is listed as “reduced the accelerated weight gain”. Besides, in series [14] (ob/ob mice), the Weight gain result is “reduced the accelerated weight gain”. Besides, the Weight gain entry in series [14] (wild type mice on standard chow, TETA in drinking water or by gavage) is “failed to affect the physiological weight gain”. Also, in series [15] (WT mice fed a normal diet), the Glucose tolerance test entry is “had no effect” and the Insulin tolerance test entry was “had no effect”. Besides, in series [15] (setting [20]), the “Plasma glucose concentration after intraperitoneal glucose (GTT)” value is “reduced the plasma glucose concentration” and the “Transient decrease in glycemia after injection of insulin (ITT)” value is on record as “enhanced the transient decrease in glycemia”. Further, in series [16], the “Plasma C-peptide” value is “prevented the HFD-induced elevation”, the “Plasma IGFBP1” value is “prevented the HFD-induced elevation”, the Plasma adiponectin levels entry is “increased the adiponectin levels” and the “Plasma gastric inhibitory peptide (GIP)” value is recorded as “prevented the HFD-induced elevation”. In [16], the Plasma insulin entry is on record as “prevented the HFD-induced elevation”, the Plasma leptin entry is “prevented the HFD-induced elevation”, the “Plasma plasminogen activator inhibitor-1 (PAI-1)” value is reported as “prevented the HFD-induced elevation” and the Plasma resistin result is “prevented the HFD-induced elevation”. Further, the Side effects entry in [17] is “side effects are mild”. Besides, in [18], the “Protein acetylation in heart (cardiomyocytes)” value is listed as “reduces protein acetylation; also recorded: reduction in protein acetylation” and the “Protein acetylation in liver (hepatocytes)” value is on record as “reduces protein acetylation; also recorded: reduction in protein acetylation”.
